In US20180319753A1, “MICROBIOCIDAL OXADIAZOLE DERIVATIVES” (SYNGENTA PARTICIPATIONS AG, priority 2015, published 2018) one finds pest or weed control, melting point and inhibition data, which are given here for 19 molecules.

Bounds are passed on as bounds.

Data set [1] has as its system Puccinia recondita f. Sp. Tritici. The data set is described as follows: Puccinia recondita f. sp. tritici / wheat / leaf disc preventative (brown rust). The class given is in vivo. As to conditions: foliar, 200 ppm in the applied formulation, wheat leaf segments cv. Kanzler, inoculated 1 day after application, assessed 7 to 9 days after application, read-out: disease control compared to untreated control leaf disks. The protocol:
Leaf disks or leaf segments of various plant species are cut from plants grown in a greenhouse. The cut leaf disks or segments are placed in multiwell plates (24-well format) onto water agar. The leaf disks are sprayed with a test solution before (preventative) or after (curative) inoculation. Compounds to be tested are prepared as DMSO solutions (max. 10 mg/ml) which are diluted to the appropriate concentration with 0.025% Tween20 just before spraying. The inoculated leaf disks or segments are incubated under defined conditions (temperature, relative humidity, light, etc.) according to the respective test system. A single evaluation of disease level is carried out 3 to 14 days after inoculation, depending on the pathosystem. Percent disease control relative to the untreated check leaf disks or segments is then calculated. Wheat leaf segments cv. Kanzler were placed on agar in multiwell plates (24-well format) and sprayed with the formulated test compound diluted in water. The leaf disks were inoculated with a spore suspension of the fungus 1 day after application. The inoculated leaf segments were incubated at 19° C. and 75% relative humidity (rh) under a light regime of 12 hours light/12 hours darkness in a climate cabinet and the activity of a compound was assessed as percent disease control compared to untreated when an appropriate level of disease damage appears in untreated check leaf segments (7 to 9 days after application). The following compounds at 200 ppm in the applied formulation give at least 80% disease control in this test when compared to untreated control leaf disks under the same conditions, which show extensive disease development.

For a further data set, the system named is Phakopsora pachyrhizi. The experiment in a line: Phakopsora pachyrhizi / soybean / leaf disc preventative (Asian soybean rust). It counts as in vivo. As to conditions: foliar, 200 ppm in the applied formulation, soybean leaf disks, inoculated one day after application, assessed 12 to 14 days after application, read-out: disease control compared to untreated control leaf disks. The method, then:
Leaf disks or leaf segments of various plant species are cut from plants grown in a greenhouse. The cut leaf disks or segments are placed in multiwell plates (24-well format) onto water agar. The leaf disks are sprayed with a test solution before (preventative) or after (curative) inoculation. Compounds to be tested are prepared as DMSO solutions (max. 10 mg/ml) which are diluted to the appropriate concentration with 0.025% Tween20 just before spraying. The inoculated leaf disks or segments are incubated under defined conditions (temperature, relative humidity, light, etc.) according to the respective test system. A single evaluation of disease level is carried out 3 to 14 days after inoculation, depending on the pathosystem. Percent disease control relative to the untreated check leaf disks or segments is then calculated.
Soybean leaf disks are placed on water agar in multiwell plates (24-well format) and sprayed with the formulated test compound diluted in water. One day after application leaf discs are inoculated by spraying a spore suspension on the lower leaf surface. After an incubation period in a climate cabinet of 24-36 hours in darkness at 20° C. and 75% rh leaf disc are kept at 20° C. with 12 h light/day and 75% rh. The activity of a compound is assessed as percent disease control compared to untreated when an appropriate level of disease damage appears in untreated check leaf disks (12 to 14 days after application).
The following compounds at 200 ppm in the applied formulation give at least 80% disease control in this test when compared to untreated control leaf disks under the same conditions, which show extensive disease development.

For data set [2], the system named is Glomerella lagenarium (Colletotrichum lagenarium). The data set is described as follows: Glomerella lagenarium (Colletotrichum lagenarium) liquid culture / cucumber / preventative (anthracnose). The class given is cell-based. As to conditions: Colletotrichum orbiculare; 20 ppm in the applied formulation; liquid culture in PDB, 24° C.; 3 to 4 days after application; read-out: disease control compared to untreated control (inhibition of growth measured photometrically). The protocol: Mycelia fragments or conidia suspensions of a fungus prepared either freshly from liquid cultures of the fungus or from cryogenic storage, are directly mixed into nutrient broth. DMSO solutions of the test compound (max. 10 mg/ml) are diluted with 0.025% Tween20 by a factor of 50 and 10 μl of this solution is pipetted into a microtiter plate (96-well format). The nutrient broth containing the fungal spores/mycelia fragments is then added to give an end concentration of the tested compound. The test plates are incubated in the dark at 24° C. and 96% relative humidity. The inhibition of fungal growth is determined photometrically after 2 to 7 days, depending on the pathosystem, and percent antifungal activity relative to the untreated check is calculated.
Conidia of the fungus from cryogenic storage are directly mixed into nutrient broth (PDB—potato dextrose broth). After placing a (DMSO) solution of test compound into a microtiter plate (96-well format), the nutrient broth containing the fungal spores is added. The test plates are incubated at 24° C. and the inhibition of growth is measured photometrically 3 to 4 days after application.
The following compounds at 20 ppm in the applied formulation give at least 80% disease control in this test when compared to untreated control under the same conditions, which show extensive disease development.

In general, melting point refers to the temperature of the solid-liquid transition. On to `O=S(=O)(c1ccc(F)cc1)c1ccc(-c2noc(C(F)(F)F)n2)cc1` [Compound 3.9, 3-[4-(4-fluorophenyl)sulfonylphenyl]-5-(trifluoromethyl)-1,2,4-oxadiazole], for which the melting point lay within 144 to 149 °C. In addition, the pest or weed control at 200 ppm in data set [1] is at least 80%. Besides, in the data set with Phakopsora pachyrhizi, the pest or weed control at 200 ppm was at least 80%.
What is called inhibition is how much of the control response was suppressed. `[O-][S+](Cc1ccc(-c2noc(C(F)(F)F)n2)c(F)c1F)c1ccccc1` (centres unmarked) [Compound 2.31, 3-[4-(benzenesulfinylmethyl)-2,3-difluoro-phenyl]-5-(trifluoromethyl)-1,2,4-oxadiazole] had a melting point of 163 to 167 °C. Further, the pest or weed control at 200 ppm in data set [1] was at least 80%. Besides, the pest or weed control at 200 ppm with Phakopsora pachyrhizi was at least 80%. Also, the inhibition at 20 ppm in data set [2] was at least 80%.
With `[O-][S+](Cc1c(F)cccc1F)c1ccc(-c2noc(C(F)(F)F)n2)cc1` (centres unmarked) [Compound 2.9, 3-[4-[(2,6-difluorophenyl)methyl-sulfinyl]phenyl]-5-(trifluoromethyl)-1,2,4-oxadiazole], the melting point lay within 126 to 130 °C. In addition, in the data set with Phakopsora pachyrhizi, the pest or weed control at 200 ppm was at least 80%. Further, the inhibition at 20 ppm in data set [2] is at least 80%.
For the molecule `Cc1cc(-c2noc(C(F)(F)F)n2)ccc1[S+]([O-])c1ccccc1` (centres unmarked) [Compound 2.11, 3-[4-(benzenesulfinyl)-3-methyl-phenyl]-5-(trifluoromethyl)-1,2,4-oxadiazole], the pest or weed control at 200 ppm (in data set [1]; in the data set on Phakopsora pachyrhizi) was at least 80% throughout. In addition, the inhibition at 20 ppm in data set [2] was at least 80%.
Take `O=S(=O)(c1ccc(-c2noc(C(F)(F)F)n2)cc1)C1CCCCC1` [Compound 3.3, 3-(4-cyclohexylsulfonylphenyl)-5-(trifluoromethyl)-1,2,4-oxadiazole]: the melting point lay within 110 to 116 °C. The pest or weed control at 200 ppm in the data set on Phakopsora pachyrhizi was at least 80%. Besides, in data set [2], the inhibition at 20 ppm was at least 80%.
In turn, `O=S(=O)(c1ccc(-c2noc(C(F)(F)F)n2)cc1)c1ccccc1F` [Compound 3.12, 3-[4-(2-fluorophenyl)sulfonylphenyl]-5-(trifluoromethyl)-1,2,4-oxadiazole] registered a melting point of 140 to 147 °C. For the same molecule, the pest or weed control at 200 ppm in the data set with Phakopsora pachyrhizi was at least 80%. For the same molecule, the inhibition at 20 ppm in data set [2] is at least 80%.
Regarding `[O-][S+](c1ccc(-c2noc(C(F)(F)F)n2)cc1)c1c(F)cccc1F` (centres unmarked) [Compound 2.16, 3-[4-(2,6-difluorophenyl)sulfinyl-phenyl]-5-(trifluoromethyl)-1,2,4-oxadiazole], the melting point fell in the range of 148 to 155 °C. In data set [1], the pest or weed control at 200 ppm was at least 80%. Also, the pest or weed control at 200 ppm in the data set on Phakopsora pachyrhizi was at least 80%.
`Fc1cc(CSc2ccccc2)ccc1-c1noc(C(F)(F)F)n1` [Compound 1.25, 3-[2-fluoro-4-(phenylsulfanylmethyl)phenyl]-5-(trifluoromethyl)-1,2,4-oxadiazole] yielded a melting point of 48 to 54 °C. The pest or weed control at 200 ppm with Phakopsora pachyrhizi was at least 80%. The inhibition at 20 ppm in data set [2] is at least 80%.
With `O=S(=O)(c1ccc(-c2noc(C(F)(F)F)n2)cc1)c1ccc(F)cc1F` [Compound 3.4, 3-[4-(2,4-difluorophenyl)sulfonyl-phenyl]-5-(trifluoromethyl)-1,2,4-oxadiazole], in the data set on Phakopsora pachyrhizi, the pest or weed control at 200 ppm is at least 80%. In addition, the inhibition at 20 ppm in data set [2] was at least 80%.
`Cc1ccccc1S(=O)(=O)c1ccc(-c2noc(C(F)(F)F)n2)cn1` [Compound 3.18, 3-[6-(o-tolylsulfonyl)-3-pyridyl]-5-(trifluoromethyl)-1,2,4-oxadiazole] had a melting point of 66 to 68 °C. Further, the pest or weed control at 200 ppm in data set [1] is at least 80%. The inhibition at 20 ppm in data set [2] was at least 80%.
Regarding `[O-][S+](Cc1ccc(-c2noc(C(F)(F)F)n2)cc1)c1ccccc1F` (centres unmarked) [Compound 2.17, 3-[4-[(2-fluorophenyl)sulfinylmethyl]phenyl]-5-(trifluoromethyl)-1,2,4-oxadiazole], the melting point lay in the range of 108 to 118 °C. In addition, the pest or weed control at 200 ppm with Phakopsora pachyrhizi was at least 80%. For the same molecule, the inhibition at 20 ppm in data set [2] is at least 80%.
Consider `[O-][S+](c1ccc(-c2noc(C(F)(F)F)n2)cc1)c1ccc(C(F)(F)F)cc1` (centres unmarked) [Compound 2.14, 5-(trifluoromethyl)-3-[4-[4-(trifluoromethyl)phenyl]sulfinylphenyl]-1,2,4-oxadiazole], for which the melting point fell in the range of 94 to 100 °C. Also, in data set [1], the pest or weed control at 200 ppm was at least 80%. Further, the inhibition at 20 ppm in data set [2] was at least 80%.
Consider `COc1ccccc1S(=O)(=O)c1ccc(-c2noc(C(F)(F)F)n2)cc1` [Compound 3.10, 3-[4-(2-methoxyphenyl)sulfonyl-phenyl]-5-(trifluoromethyl)-1,2,4-oxadiazole], for which the melting point was 119 to 123 °C. The pest or weed control at 200 ppm in data set [1] is at least 80%.
Regarding `O=S(=O)(Cc1ccc(-c2noc(C(F)(F)F)n2)cn1)c1ccccc1` [Compound 3.21, 3-[6-(benzenesulfonylmethyl)-3-pyridyl]-5-(trifluoromethyl)-1,2,4-oxadiazole], the melting point lay within 160 to 166 °C. Besides, the pest or weed control at 200 ppm with Phakopsora pachyrhizi was at least 80%. For the same molecule, the inhibition at 20 ppm in data set [2] was at least 80%.
`O=S(=O)(c1ccc(-c2noc(C(F)(F)F)n2)cn1)c1ccccc1F` [Compound 3.19, 3-[6-(2-fluorophenyl)sulfonyl-3-pyridyl]-5-(trifluoromethyl)-1,2,4-oxadiazole] came in with a melting point of 145 to 151 °C. Further, the pest or weed control at 200 ppm in data set [1] was at least 80%. For the same molecule, the inhibition at 20 ppm in data set [2] was at least 80%.
`Cc1ccccc1S(=O)(=O)c1ccc(-c2noc(C(F)(F)F)n2)cc1` [Compound 3.17, 3-[4-(o-tolylsulfonyl)phenyl]-5-(trifluoromethyl)-1,2,4-oxadiazole]: the melting point was 109 to 115 °C. Also, in data set [1], the pest or weed control at 200 ppm is at least 80%. For the same molecule, the inhibition at 20 ppm in data set [2] was at least 80%.
For the molecule `Fc1ccc(Sc2ccc(-c3noc(C(F)(F)F)n3)cc2)c(F)c1` [Compound 1.10, 3-[4-(2,4-difluorophenyl)sulfanylphenyl]-5-(trifluoromethyl)-1,2,4-oxadiazole], the melting point lay in the range of 72 to 80 °C. Further, in the data set with Phakopsora pachyrhizi, the pest or weed control at 200 ppm is at least 80%. In addition, in data set [2], the inhibition at 20 ppm is at least 80%.
Molecule `[O-][S+](Cc1ccc(-c2noc(C(F)(F)F)n2)cc1F)c1ccccc1` (centres unmarked) [Compound 2.29, 3-[4-(benzenesulfinylmethyl)-3-fluoro-phenyl]-5-(trifluoromethyl)-1,2,4-oxadiazole] came in with a melting point of 116 to 120 °C. Further, the pest or weed control at 200 ppm in the data set on Phakopsora pachyrhizi was at least 80%. The inhibition at 20 ppm in data set [2] was at least 80%.
For the molecule `Fc1cc(-c2noc(C(F)(F)F)n2)ccc1CSc1ccccc1` [Compound 1.24, 3-[3-fluoro-4-(phenylsulfanylmethyl)phenyl]-5-(trifluoromethyl)-1,2,4-oxadiazole], the melting point is 50 to 55 °C. In the data set with Phakopsora pachyrhizi, the pest or weed control at 200 ppm is at least 80%. Further, in data set [2], the inhibition at 20 ppm was at least 80%.
